The values below come from US20090074850A1, “USE OF A TOPICAL COMPOSITION CONTAINING EPIDERMAL GROWTH FACTOR (EGF) FOR DIABETIC FOOT AMPUTATION PREVENTION” (priority 2005, published 2009).

Marks after values point to notes of the source that are not given here.

Series [1] concerns controlled acute ulcers in male Wistar rats. Put plainly: Experimental model of controlled acute lesions. Type of series: in vivo. As to the method:
The following experiment was performed with the aim of evaluating the cicatrisation effect of the new pharmaceutical formulation for topical use, which is based on EGF-loaded (deformable or traditional) liposomes, in acute lesions of satisfactory prognosis.
(§1) Experimental Biomodel Male Wistar rats with a body weight of 225-250 grams. Animal were maintained in controlled areas of the animal facility at CIGB under a constant illumination schedule of 12×12 hours, air change cycles, and free access to the diet. The rats were individually housed into T3 boxes with replacement of the bedding every 48 hours after its sterilization. Induction of ulcers: Animals were anesthetized by intraperitoneal injection of ketamine/xylazine. The back of rats comprising the area from the retroscapular space up to the sacrum was mechanically and chemically depilated. This region was aseptisized with a solution of povidone-iodine and isopropyl alcohol. The area over the skin selected for the induction of ulcers was marked with Chinese ink in order to induce circular, total width lesions with the aid of 9 mm-diameter biotomes (AcuDrem, Fl, USA). […] Lesions were washed with a sterile saline solution and their inner border was delineated with permanent ink for later calculation of wound area at time zero. The lesions of all animals were hygienized daily with 70% ethanol and sterile saline before the application of any treatment.
(§2) The ulcers created in the animals were randomly assigned to the following experimental treatment groups by using an input order/group crossmatching table:
(§3) Group I—no treatment. Group II—placebo (formulation of empty deformable liposomes—without EGF) applied topically.
(§4) Group III—infiltration of an EGF solution containing 75 micrograms per milliliter by using hypodermic needles. Infiltrations were performed on the border and the bottom of wounds
Group IV—treatment with the formulation of traditional liposomes containing 25 micrograms of EGF per gram of substance applied topically Group V—treatment with the formulation of traditional liposomes containing 75 micrograms of EGF per gram of substance applied topically Group V—treatment with the formulation of deformable liposomes containing 25 micrograms of EGF per gram of substance applied topically Group VII—treatment with the formulation of deformable liposomes containing 75 micrograms of EGF per gram of substance applied topically
(§5) Each group consisted of 10 rats; therefore 60 wounds per group were studied. Treatments were performed daily, after sedation of animals with diazepam administrated by the intra-peritoneal route.
(§6) The lesions were traced on transparent acetate sheets for calculating the kinetics of the wounds contraction over the following times: Time 0—represents 100% of opened lesion area and 0% wound contraction, Time 1—72 hours after the induction of lesions, Time 2—five days after the induction of lesions, Time 3—seven days after the induction of lesions, Time 4—nine days after the induction of lesions. The ninth day was set as the end of this study, on which the animals were sacrificed, according to previous experiences on the kinetics of the spontaneous cicatrisation of these lesions. The images with traced lesions borders were digitized. The area of lesions and the percent of contraction were calculated by using the image analysis software DIGIPAT. Statistical analyses of each parameter were performed with the SPSS package by using the non-parametric Mann Whitney U test, a signification level of p<0.05 was assumed.
Animals were sacrificed by intra-peritoneal injection with an overdose of sodium pentobarbital (250 mg/kg). Lesion were dried up from the panniculus carnosus and fixed in 10% neutral formalin for later inclusion in paraffin. The hematoxylin/eosin, van Giesson's and Masson's trichromic stains were used. For each group, the number of animals with 100% epithelization of the lesion, and with a stratified and differentiated epidermis was determined. […]

Series [2] deals with chronic ulcers in male Wistar rats treated with methylglyoxal. Put plainly: Experimental model of chronic cutaneous ulcers (methylglyoxal-treated rats). Type of series: in vivo. The protocol:
The following experiment was aimed at evaluating the cicatrisation effect of the new pharmaceutical formulation of topical use that is based on traditional or deformable liposomes containing EGF in chronic lesions of poor prognosis, which simulate lesions in diabetic patients.
Experimental Biomodel Male Wistar rats with a body weight of 225-250 grams. Animal were maintained in controlled areas of the animal facility at CIGB under a constant illumination schedule of 12×12 hours, air change cycles, and free access to the diet. The rats were individually housed into T3 boxes with replacement of the bedding every 48 hours after its sterilization. The animals had previously been treated for two months with a 0.01% methylglyoxal solution to create a glycosylation environment similar to that occurring in a diabetic patient of long term evolution. Among other organic damages, this leads to a slow down of the granulation and remodelation of wounds (Berlanga J., Cibrian D., et al. (2005) Methylglyoxal administration induces diabetes-like microvascular changes and perturbs the healing process of cutaneous wounds. Clin Sci (Lond). 109(1):83-95).
as §1, with “Induction” for “Experimental Biomodel Male Wistar rats with a body weight of 225-250 grams. Animal were maintained in controlled areas of the animal facility at CIGB under a constant illumination schedule of 12×12 hours, air change cycles, and free access to the diet. The rats were individually housed into T3 boxes with replacement of the bedding every 48 hours after its sterilization. Induction”
as §2, §3, §4
Group IV—treatment with the formulation of traditional liposomes containing 25 micrograms of EGF per gram of substance applied topically Group V—treatment with the formulation of traditional liposomes containing 75 micrograms of EGF per gram of substance applied topically Group VI—treatment with the formulation of deformable liposomes containing 25 micrograms of EGF per gram of substance applied topically Group VII—treatment with the formulation of deformable liposomes containing 75 micrograms of EGF per gram of substance applied topically
as §5
as §6, with “[…],” for “Time 4—nine days after the induction of lesions. The ninth day was set as the end of this study,”, “assumed. […]” for “assumed.”

Series [3] can be described thus: Concentration of EGF in the viable tissue deep below the cutaneous lesions (ELISA). The class given is in vivo, Wistar rats. To be noted: tissue 1 cm below lesion. The protocol: To determine the concentration of EGF, histological cuts of the tissue deep below (1 cm) the cutaneous lesions were performed 20 min, 1 h, 4 h, 8 h, 16 h and 24 h after the induction of lesions. The tissue was homogenized into a phosphate-buffered saline solution. The concentration of EGF was determined by an Enzyme Linked Immunosorbent Assay (ELISA).

Series [4] deals with diabetic foot ulcers, grade IV and V lesions with a severe ischemic component. Conditions: EGF infiltrated in and around lesions with hypodermic needles; cited from earlier work.

Consider “Group III: infiltration of an EGF solution containing 75 micrograms per milliliter by using hypodermic needles”, for which the results for the “No. wounds with 100% epithelization” value in series [1] (60 wounds per group) and in series [2] (60 wounds per group) were 37 and 16, respectively. Further, the “No. wounds with a mature epithelium” value in series [1] (60 wounds per group) came out at 25; in series [2] (60 wounds per group), 11. For the same substance, the “Contraction (%)” value in series [1] (Time 1 (72 hours after induction of lesions)) is listed as 12.3 ± 2.1*^a %; in series [1] (Time 2 (five days)) it was 23 ± 2.7*^a %; in series [1] (Time 3 (seven days)) it was 67.5 ± 3.1*^a %; in series [1] (Time 4 (nine days)), 76.5 ± 2.2*^a %; in series [2] (Time 1), 6.55 ± 1.14%; in series [2] (Time 2), 10.25 ± 3.1 %. Besides, the “Contraction (%)” value in series [2] (Time 3) stood at 25 ± 2.7 %; in series [2] (Time 4) it was 53.5 ± 3.5 %; in series [2] (Time 6) it was 61.7 ± 2.14 %. For the same substance, the “% area covered by mature granulation tissue” value in series [1] (Time 4, 60 wounds per group) came to 66.7 ± 3.22%; in series [2] (Time 4, 60 wounds per group) it was 41.7 ± 2.25%. Further, the “EGF concentration” value in series [3] (20 min) is 27.55 ± 0.14 µg/mL; in series [3] (1 h) it was 5.47 ± 0.1 µg/mL; in series [3] (4 h) it was 1.55 ± 0.1 µg/mL; in series [3] (8 h), 0.26 ± 0.04 µg/mL; in series [3] (16 h), 0.07 ± 0.01 µg/mL; in series [3] (24 h), 0.02 ± 0.005 µg/mL.
With “epidermal growth factor (EGF) [Free EGF, non-encapsulated epidermal growth factor]”, in series [4], the efficacy entry is “greater than 50%”.
